Reference: doi:10.1101/2025.10.29.685286v1 (biorxiv, 2025)

Biological target: T1, NmGNAT (Nakamurella multipartita, UniProt C8XEF8)
T1 sequence (C8XEF8 1-164): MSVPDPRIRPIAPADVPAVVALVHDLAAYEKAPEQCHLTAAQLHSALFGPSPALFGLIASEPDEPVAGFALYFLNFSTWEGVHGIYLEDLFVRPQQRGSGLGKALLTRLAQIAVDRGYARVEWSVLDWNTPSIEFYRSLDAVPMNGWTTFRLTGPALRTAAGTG
Experiment: microscale thermophoresis
Format: binding

| SMILES | Kd [µM] |
| --- | --- |
| CC(=O)SCCNC(=O)CCNC(=O)[C@H](O)C(C)(C)COP(=O)(O)OP(=O)(O)OC[C@H]1O[C@@H](n2cnc3c(N)ncnc32)[C@H](O)[C@@H]1OP(=O)(O)O [acetyl-CoA] | 18.9 ± 3.2 |
| NCCCC[C@H](N)C(=O)O [lysine] | 137 ± 4.2 |
